PubChem BioAssay (NCI)
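Protocol summary: plate cells (96-well), add compound at 5 concentrations, incubate 48 h, interpolate endpoints linearly. Definition used: TGI = concentration required for complete inhibition of growth.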

Tests used:
Assay in all cases: DTP human tumour cell line panel, 48 h
[1] = tested on: MOLT-4 leukemia
[2] = tested on: RPMI-8226 leukemia
[3] = tested on: RXF-631 renal
[4] = tested on: COLO 205 colon
[5] = tested on: M14 melanoma
[6] = tested on: HOP-18 NSCLC
[7] = tested on: 786-0 renal
[8] = tested on: DMS 114 small cell lung
[9] = tested on: HCT-116 colon
[10] = tested on: SK-MEL-5 melanoma
[11] = tested on: K-562 leukemia
[12] = tested on: SR leukemia
[13] = tested on: NCI-H460 lung
[14] = tested on: TK-10 renal
[15] = tested on: NCI-H226 lung
[16] = tested on: SK-OV-3 ovarian
[17] = tested on: DLD-1 colon
[18] = tested on: M19-MEL melanoma
[19] = tested on: U251 CNS
[20] = tested on: HL-60(TB) leukemia
[21] = tested on: SNB-78 CNS
[22] = tested on: UACC-257 melanoma
[23] = tested on: DMS 273 small cell lung
[24] = tested on: SNB-19 CNS
[25] = tested on: LXFL 529 NSCLC
[26] = tested on: HOP-62 NSCLC
[27] = tested on: RXF 393 renal
[28] = tested on: UO-31 renal
[29] = tested on: OVCAR-8 ovarian
[30] = tested on: SK-MEL-28 melanoma
[31] = tested on: XF 498 CNS
[32] = tested on: OVCAR-5 ovarian
[33] = tested on: SF-539 CNS
[34] = tested on: OVCAR-4 ovarian
[35] = tested on: SN12C renal
[36] = tested on: KM20L2 colon
[37] = tested on: SK-MEL-2 melanoma
[38] = tested on: MALME-3M melanoma
[39] = tested on: CCRF-CEM leukemia
[40] = tested on: SF-268 CNS
[41] = tested on: NCI-H23 lung
[42] = tested on: A498 renal
[43] = tested on: SNB-75 CNS
[44] = tested on: IGROV1 ovarian
[45] = tested on: LOX IMVI melanoma
[46] = tested on: HT29 colon
[47] = tested on: HCT-15 colon
[48] = tested on: EKVX NSCLC
[49] = tested on: HCC-2998 colon
[50] = tested on: UACC-62 melanoma
[51] = tested on: CAKI-1 renal
[52] = tested on: KM12 colon
[53] = tested on: A549 NSCLC
[54] = tested on: SW-620 colon
[55] = tested on: SF-295 CNS
[56] = tested on: ACHN renal
[57] = tested on: OVCAR-3 ovarian
[58] = tested on: HOP-92 NSCLC
[59] = tested on: NCI-H522 lung

Structure (SMILES): C[C@]12CCc3nonc3C1CC[C@@H]1C2CC[C@]2(C)C(=O)/C(=N\O)CC12 (stereo partly drawn)
- TGI [1]: > 100 µM
- TGI [2]: > 100 µM
- TGI [3]: > 100 µM
- TGI [4]: > 100 µM
- TGI [5]: > 100 µM
- TGI [6]: > 100 µM
- TGI [7]: > 100 µM
- TGI [8]: > 100 µM
- TGI [9]: > 100 µM
- TGI [10]: > 100 µM
- TGI [11]: > 100 µM
- TGI [12]: > 100 µM
- TGI [13]: > 100 µM
- TGI [14]: > 100 µM
- TGI [15]: > 100 µM
- TGI [16]: > 100 µM
- TGI [17]: > 100 µM
- TGI [18]: > 100 µM
- TGI [19]: > 100 µM
- TGI [20]: 3.69 µM
- TGI [21]: > 100 µM
- TGI [22]: > 100 µM
- TGI [23]: > 100 µM
- TGI [24]: > 100 µM
- TGI [25]: > 100 µM
- TGI [26]: > 100 µM
- TGI [27]: > 100 µM
- TGI [28]: > 100 µM
- TGI [29]: > 100 µM
- TGI [30]: > 100 µM
- TGI [31]: > 100 µM
- TGI [32]: > 100 µM
- TGI [33]: > 100 µM
- TGI [34]: > 100 µM
- TGI [35]: > 100 µM
- TGI [36]: > 100 µM
- TGI [37]: > 100 µM
- TGI [38]: > 100 µM
- TGI [39]: > 100 µM
- TGI [40]: > 100 µM
- TGI [41]: > 100 µM
- TGI [42]: > 100 µM
- TGI [43]: > 100 µM
- TGI [44]: > 100 µM
- TGI [45]: > 100 µM
- TGI [46]: > 100 µM
- TGI [47]: > 100 µM
- TGI [48]: > 100 µM
- TGI [49]: > 100 µM
- TGI [50]: > 100 µM
- TGI [51]: > 100 µM
- TGI [52]: > 100 µM
- TGI [53]: > 100 µM
- TGI [54]: > 100 µM
- TGI [55]: > 100 µM
- TGI [56]: > 100 µM
- TGI [57]: > 100 µM
- TGI [58]: > 100 µM
- TGI [59]: 32 µM

Structure (SMILES): COC(=O)C(C(=O)C(=O)Nc1ccc(Br)cc1)c1nc2ccc(Cl)cc2[nH]c1=O (stereo not drawn)
- TGI [1]: > 100 µM
- TGI [2]: > 100 µM
- TGI [3]: > 100 µM
- TGI [4]: > 61.3 µM
- TGI [5]: > 100 µM
- TGI [6]: > 100 µM
- TGI [7]: > 100 µM
- TGI [8]: > 100 µM
- TGI [9]: > 100 µM
- TGI [10]: > 100 µM
- TGI [11]: > 100 µM
- TGI [12]: > 100 µM
- TGI [13]: > 100 µM
- TGI [14]: > 100 µM
- TGI [15]: > 100 µM
- TGI [16]: > 100 µM
- TGI [17]: > 100 µM
- TGI [18]: > 100 µM
- TGI [19]: > 100 µM
- TGI [20]: > 100 µM
- TGI [21]: > 100 µM
- TGI [22]: > 100 µM
- TGI [23]: > 100 µM
- TGI [24]: > 100 µM
- TGI [25]: > 100 µM
- TGI [26]: > 100 µM
- TGI [27]: > 100 µM
- TGI [28]: > 100 µM
- TGI [29]: > 100 µM
- TGI [30]: > 100 µM
- TGI [31]: > 100 µM
- TGI [32]: > 100 µM
- TGI [33]: > 100 µM
- TGI [34]: > 71.3 µM
- TGI [35]: > 100 µM
- TGI [36]: > 100 µM
- TGI [37]: > 100 µM
- TGI [38]: > 100 µM
- TGI [39]: > 100 µM
- TGI [40]: > 100 µM
- TGI [41]: > 100 µM
- TGI [42]: > 100 µM
- TGI [43]: > 100 µM
- TGI [44]: > 100 µM
- TGI [45]: > 100 µM
- TGI [46]: > 72.2 µM
- TGI [47]: > 55.9 µM
- TGI [48]: > 100 µM
- TGI [49]: > 100 µM
- TGI [50]: > 100 µM
- TGI [51]: > 100 µM
- TGI [52]: > 100 µM
- TGI [53]: > 100 µM
- TGI [54]: > 41.4 µM
- TGI [55]: > 100 µM
- TGI [56]: > 100 µM
- TGI [57]: > 100 µM
- TGI [58]: > 100 µM
- TGI [59]: > 100 µM
